For data set [1], the target named is T1, CYP3A4 (Homo sapiens, UniProt P08684). Description: Induction of CYP3A4 in human hepatocytes at 1000 uM after 72 hrs relative to control. Type of data set: ADME, cell-based, Hepatocyte. As to conditions: read-out: FC.
Data set [2] addresses T2, CYP1A2 (Homo sapiens, UniProt P05177).
T2 sequence (P05177 whole entry): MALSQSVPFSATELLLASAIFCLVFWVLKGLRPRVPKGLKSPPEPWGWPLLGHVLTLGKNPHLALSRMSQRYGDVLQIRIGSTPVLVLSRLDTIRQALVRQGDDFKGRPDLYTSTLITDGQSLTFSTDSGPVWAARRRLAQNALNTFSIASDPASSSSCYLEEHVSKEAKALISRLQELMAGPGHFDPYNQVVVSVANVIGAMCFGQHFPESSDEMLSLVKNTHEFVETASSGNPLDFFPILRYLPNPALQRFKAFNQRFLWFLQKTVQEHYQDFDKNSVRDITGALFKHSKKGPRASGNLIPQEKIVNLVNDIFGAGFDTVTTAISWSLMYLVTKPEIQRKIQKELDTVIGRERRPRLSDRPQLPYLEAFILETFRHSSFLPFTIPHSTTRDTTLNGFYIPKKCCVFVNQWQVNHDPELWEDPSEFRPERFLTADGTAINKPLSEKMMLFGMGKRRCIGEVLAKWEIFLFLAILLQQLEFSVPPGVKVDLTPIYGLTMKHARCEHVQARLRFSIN
Description: Induction of CYP1A2 in human hepatocytes at 1000 uM after 72 hrs relative to control. The data set is classed as ADME, cell-based, Hepatocyte. Particulars: read-out: FC.

The target in data set [3] is T3, CYP2B6 (Homo sapiens, UniProt P20813).
T3 sequence (P20813 whole entry): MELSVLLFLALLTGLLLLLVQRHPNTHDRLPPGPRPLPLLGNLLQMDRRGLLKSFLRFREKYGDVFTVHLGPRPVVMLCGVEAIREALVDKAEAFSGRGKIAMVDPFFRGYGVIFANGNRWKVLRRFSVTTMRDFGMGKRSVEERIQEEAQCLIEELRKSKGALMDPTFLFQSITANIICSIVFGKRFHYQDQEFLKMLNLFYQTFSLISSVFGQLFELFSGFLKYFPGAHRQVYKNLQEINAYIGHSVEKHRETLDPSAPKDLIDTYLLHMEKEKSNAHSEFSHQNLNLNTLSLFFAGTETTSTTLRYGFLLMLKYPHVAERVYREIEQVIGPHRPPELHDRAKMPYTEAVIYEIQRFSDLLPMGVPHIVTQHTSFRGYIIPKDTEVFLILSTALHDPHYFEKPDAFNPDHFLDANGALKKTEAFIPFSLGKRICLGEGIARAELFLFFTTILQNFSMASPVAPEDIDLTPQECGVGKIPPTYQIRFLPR
Put plainly: Induction of CYP2B6 in human hepatocytes at 1000 uM after 72 hrs relative to control. Type of data set: ADME, cell-based, Hepatocyte. As to conditions: read-out: FC.

Data set [4] has as its target T3, CYP2B6. Put plainly: Induction of CYP2B6 in human hepatocytes at 2 uM after 72 hr relative to control. The data set is classed as ADME, cell-based, Hepatocyte. Particulars: read-out: FC.
Data set [5] has as its target T1, CYP3A4. Description: Induction of CYP3A4 in human hepatocytes at 2 uM after 72 hrs relative to control. Type of data set: ADME, cell-based, Hepatocyte. As to conditions: read-out: FC.
The target of data set [6] is T2, CYP1A2. Description: Induction of CYP1A2 in human hepatocytes at 2 uM after 72 hrs relative to control. The data set is classed as ADME, cell-based, Hepatocyte. As to conditions: read-out: FC.
Data set [7] relates to PBMC. Description: Antiinflammatory activity in human PBMC assessed as inhibition of anti-CD3/CD28 antibody-induced IL-2 production treated for 1 hr before anti-CD3/CD28 antibody challenge measured after 6 hrs by immunosuppression assay. The data set is classed as functional, cell-based.
For data set [8], the system named is Hepatitis C virus. Put plainly: Antiviral activity against Hepatitis C virus infected in human Huh7ET cells assessed as inhibition of viral replication after 72 hrs by luciferase reporter gene assay. Type of data set: functional, organism-based, Hepacivirus hominis. As to conditions: Huh-7, 72 h. For orientation: Reporter assays use an easily measured gene product as a stand-in for the process of interest.

T1 sequence (P08684 whole entry): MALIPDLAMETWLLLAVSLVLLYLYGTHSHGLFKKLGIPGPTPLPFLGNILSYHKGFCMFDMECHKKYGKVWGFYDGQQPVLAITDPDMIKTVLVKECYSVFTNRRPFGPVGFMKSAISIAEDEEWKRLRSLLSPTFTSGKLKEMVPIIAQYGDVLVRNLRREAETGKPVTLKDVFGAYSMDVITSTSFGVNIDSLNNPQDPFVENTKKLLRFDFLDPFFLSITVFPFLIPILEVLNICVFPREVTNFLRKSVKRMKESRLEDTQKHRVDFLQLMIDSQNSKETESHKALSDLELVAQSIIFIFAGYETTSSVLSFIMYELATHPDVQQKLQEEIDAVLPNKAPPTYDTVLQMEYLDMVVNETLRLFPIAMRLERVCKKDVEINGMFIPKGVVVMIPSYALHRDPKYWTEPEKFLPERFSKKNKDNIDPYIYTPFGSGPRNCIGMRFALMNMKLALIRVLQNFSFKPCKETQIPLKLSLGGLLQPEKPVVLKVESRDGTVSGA

Regarding `CCC1(c2ccccc2)C(=O)NC(=O)NC1=O` [PHENOBARBITAL], the fold induction at 72 h, 1000 µM in data set [1] turned out to be 6.73; in data set [2], 1.67; in data set [3], 9.1.

Consider `Cc1ccc2cc3c(ccc4ccccc43)c3c2c1CC3` [3-METHYLCHOLANTHRENE], for which the fold induction at 72 h, 2 µM in data set [4] stood at 1.33; in data set [5] it was 0.97; in data set [6], 21.2.

In general, EC50 refers to the concentration giving half of the maximal effect. Broadly, the CC50 is the concentration giving 50% cytotoxicity. For the molecule `C/C=C/C[C@@H](C)[C@@H](O)[C@H]1C(=O)N[C@@H](CC)C(=O)N(C)CC(=O)N(C)[C@@H](CC(C)C)C(=O)N[C@@H](C(C)C)C(=O)N(C)[C@@H](CC(C)C)C(=O)N[C@@H](C)C(=O)N[C@H](C)C(=O)N(C)[C@@H](CC(C)C)C(=O)N(C)[C@@H](CC(C)C)C(=O)N(C)[C@@H](C(C)C)C(=O)N1C` [CYCLOSPORINE], in data set [7], the EC50 came out at 0.0031 µM. Further, the cytotoxic concentration (CC50) in data set [8] amounted to 5.62 µM.

These data come from ChEMBL document CHEMBL1212786 (Antimicrob Agents Chemother, 2010).
